{
  "source": "paper PMC4852132",
  "about": "(Biochemistry, 2016)",
  "key": {"[1]": {"molecular_target": "PDHc-h (Homo sapiens, UniProt P08559+P11177)", "assay": "Overall PDHc-h activity by formation of NADH at 340 nm", "type": "biochemical"}, "[2]": {"molecular_target": "T1, PDHc-ec (Escherichia coli, UniProt P0AFG8)", "conditions": "cofactor 0.2 mM in assay, no ThDP present for MeOThDP"}, "[3]": {"molecular_target": "T1, PDHc-ec"}, "[4]": {"molecular_target": "T2, E1p-h (Homo sapiens, UniProt P08559+P11177)", "T2 sequence (P08559 30-390)": "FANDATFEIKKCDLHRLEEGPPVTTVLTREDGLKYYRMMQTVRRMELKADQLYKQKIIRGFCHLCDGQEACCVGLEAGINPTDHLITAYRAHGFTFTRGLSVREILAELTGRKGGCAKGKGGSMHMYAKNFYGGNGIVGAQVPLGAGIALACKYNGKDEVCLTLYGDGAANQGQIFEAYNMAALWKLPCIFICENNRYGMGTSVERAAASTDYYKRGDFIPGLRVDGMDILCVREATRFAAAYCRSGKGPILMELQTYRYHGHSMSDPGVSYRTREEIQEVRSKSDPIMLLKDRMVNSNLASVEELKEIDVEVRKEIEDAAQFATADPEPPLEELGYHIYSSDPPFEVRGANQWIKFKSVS", "T2 sequence (P11177 31-359)": "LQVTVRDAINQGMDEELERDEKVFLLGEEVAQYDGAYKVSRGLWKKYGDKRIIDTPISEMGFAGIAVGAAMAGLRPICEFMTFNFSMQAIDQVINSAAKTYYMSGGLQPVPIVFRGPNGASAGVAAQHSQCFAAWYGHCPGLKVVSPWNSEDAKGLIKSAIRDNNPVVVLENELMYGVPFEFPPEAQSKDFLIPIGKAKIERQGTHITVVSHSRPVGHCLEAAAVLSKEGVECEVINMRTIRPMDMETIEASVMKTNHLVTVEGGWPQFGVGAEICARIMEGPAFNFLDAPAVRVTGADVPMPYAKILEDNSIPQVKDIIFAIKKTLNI", "conditions": "MeOThDP bound on E1p-h; CD309 vs pH"}, "[5]": {"molecular_target": "T3, E1p-ec (Escherichia coli, UniProt P0AFG8)"}, "[6]": {"molecular_target": "T4, DXPS (Escherichia coli, UniProt P77488)", "conditions": "apo-DXPS with 0.10 mM cofactor"}, "[7]": {"molecular_target": "T5, E1o-h (Homo sapiens, UniProt Q02218)", "T5 sequence (Q02218 41-1023)": "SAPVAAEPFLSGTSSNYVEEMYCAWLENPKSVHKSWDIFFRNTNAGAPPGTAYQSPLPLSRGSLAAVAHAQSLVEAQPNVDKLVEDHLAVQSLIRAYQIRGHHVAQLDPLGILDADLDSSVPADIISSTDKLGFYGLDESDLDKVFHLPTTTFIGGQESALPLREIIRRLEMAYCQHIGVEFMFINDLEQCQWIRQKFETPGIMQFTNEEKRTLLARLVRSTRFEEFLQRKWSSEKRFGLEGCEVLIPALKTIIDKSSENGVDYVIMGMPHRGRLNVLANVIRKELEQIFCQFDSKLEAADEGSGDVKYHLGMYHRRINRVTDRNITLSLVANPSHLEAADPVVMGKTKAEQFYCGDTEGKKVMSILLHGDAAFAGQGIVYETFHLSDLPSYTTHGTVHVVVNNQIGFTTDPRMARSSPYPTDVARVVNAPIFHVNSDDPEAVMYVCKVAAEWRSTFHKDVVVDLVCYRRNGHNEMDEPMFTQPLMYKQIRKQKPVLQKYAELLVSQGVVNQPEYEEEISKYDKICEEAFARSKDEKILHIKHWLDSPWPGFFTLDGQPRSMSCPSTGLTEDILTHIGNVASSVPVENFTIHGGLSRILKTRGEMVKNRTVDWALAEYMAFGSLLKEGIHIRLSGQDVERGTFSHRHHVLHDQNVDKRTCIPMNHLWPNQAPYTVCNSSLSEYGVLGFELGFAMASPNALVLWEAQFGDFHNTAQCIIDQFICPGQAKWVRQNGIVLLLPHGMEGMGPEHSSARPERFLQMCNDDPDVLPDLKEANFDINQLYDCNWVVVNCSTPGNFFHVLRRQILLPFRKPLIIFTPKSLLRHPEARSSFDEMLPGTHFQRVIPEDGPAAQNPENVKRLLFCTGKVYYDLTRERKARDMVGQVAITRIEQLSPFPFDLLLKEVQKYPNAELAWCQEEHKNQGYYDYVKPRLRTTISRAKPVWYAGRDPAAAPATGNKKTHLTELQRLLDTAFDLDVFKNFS", "assay": "E1o-h specific activity", "type": "biochemical"}, "[8]": {"molecular_target": "E1o-ec (Escherichia coli, UniProt P0AFG3)", "assay": "E1o-ec specific activity", "type": "biochemical"}, "[9]": {"molecular_target": "T1, PDHc-ec", "conditions": "ThDP binding to PDHc-ec; cited from earlier work"}, "[10]": {"molecular_target": "T2, E1p-h", "conditions": "ThDP on E1p-h; cited from earlier work"}, "[11]": {"molecular_target": "T3, E1p-ec", "conditions": "E1p-ec complexed with ThDP; cited from earlier work"}, "[12]": {"molecular_target": "T3, E1p-ec", "assay": "biochemical"}, "[13]": {"molecular_target": "T4, DXPS", "assay": "biochemical"}, "[14]": {"conditions": "MeOThDP, PDHc-ec reconstituted from apo-E1p-ec, from lag phase"}},
  "note": "Values joined by “and” are separate entries in the source; they are usually repeats but may differ in a detail not shown here. Identical values can stand only once. Like-named read-outs stand apart in the source and are kept apart here.",
  "data": [
    {"compound": "COc1ncc(C[n+]2csc(CCOP(=O)(O)OP(=O)(O)O)c2C)c(N)n1", "note": "[MeOThDP, 2′-methoxythiamin diphosphate]", "values": [
      {"measurement": "pH of maximal kcat in the overall PDHc-h activity", "setting": "[1]; E1p-h complexed with MeOThDP", "value": 7.25},
      {"measurement": "overall PDHc-ec activity, percent of that with ThDP", "setting": "[2]", "value": "8.6% and 11% and 5.9%"},
      {"measurement": "K1 binding constant", "setting": "[3]; MeOThDP, PDHc-ec reconstituted from apo-E1p-ec, E2p-ec, E3-ec, from lag phase", "value": 300000, "unit": "M⁻¹"},
      {"measurement": "k2 forward rate constant of binding", "setting": "[3]; [14]", "value": 0.0087, "unit": "s⁻¹"},
      {"measurement": "k3 forward rate constant for second cofactor binding", "setting": "[3]; [14]", "value": 49, "unit": "M⁻¹ s⁻¹"},
      {"measurement": "k-2 dissociation rate constant", "setting": "[3]; [14]", "value": 0.0033, "unit": "s⁻¹"},
      {"measurement": "k-3 reverse rate constant for dissociation of second cofactor", "setting": "[3]; [14]", "value": 0.0069, "unit": "s⁻¹"},
      {"measurement": "k3 times lower than that for ThDP", "setting": "[3]; binding of second MeOThDP vs ThDP", "value": "~ 14 times"},
      {"measurement": "Kd", "setting": "[3]; read-out: Kd,MeOThDP calculated as 1/K1,MeOThDP, from Table 2", "value": "3.45 ± 0.74", "unit": "µM"},
      {"measurement": "pKa for the ([AP] + [IP])/[APH^+] equilibrium", "setting": "[4]", "value": "8.02 ± 0.03"},
      {"measurement": "rate constant of reductive acetylation of LDh-ec", "setting": "[5]; E1p-ec complexed with MeOThDP (0.20 mM), 2 mM pyruvate", "value": 4.4, "unit": "s⁻¹"},
      {"measurement": "rate constant of reductive acetylation, times slower than with ThDP", "setting": "[5]; E1p-ec with MeOThDP vs ThDP", "value": "at least 10 times"},
      {"measurement": "DXPS activity, percent of that with ThDP", "setting": "[6]", "value": "9–14% and 8.8% and 14% and ~ 8.8% and ~ 14%"},
      {"measurement": "DXPS activity", "setting": "[6]; 37 °C, independent preparations", "value": "0.26 ± 0.04 µmol min^−1 (mg of DXPS)^−1 and 0.30 ± 0.01 µmol min^−1 (mg of DXPS)^−1"}
    ]},
    {"compound": "Cc1ncc(C[n+]2csc(CCOP(=O)([O-])OP(=O)(O)O)c2C)c(N)n1", "note": "[ThDP, thiamin diphosphate]", "values": [
      {"measurement": "overall PDHc-h activity, percent of that with ThDP", "setting": "[1]; cofactor 0.2 or 0.5 mM", "value": 100, "unit": "%"},
      {"measurement": "E1o specific activity, percent of that with ThDP", "setting": "[7]; E1o-h", "value": 100, "unit": "%"},
      {"measurement": "E1o specific activity", "setting": "[7]; E1o-h alone", "value": "0.51 ± 0.02 µmol min^−1 (mg of E1o)^−1 and 0.44 ± 0.08 µmol min^−1 (mg of E1o)^−1"},
      {"measurement": "E1o specific activity, percent of that with ThDP", "setting": "[8]; E1o-ec", "value": 100, "unit": "%"},
      {"measurement": "E1o specific activity", "setting": "[8]; E1o-ec alone", "value": "0.54 ± 0.03 µmol min^−1 (mg of E1o)^−1 and 0.54 ± 0.31 µmol min^−1 (mg of E1o)^−1"},
      {"measurement": "overall PDHc-ec activity, percent of that with ThDP", "setting": "[2]", "value": 100, "unit": "%"},
      {"measurement": "DXPS activity, percent of that with ThDP", "setting": "[6]", "value": 100, "unit": "%"},
      {"measurement": "K1 binding constant", "setting": "[9]", "value": "1.2e+06", "unit": "M⁻¹"},
      {"measurement": "k2 forward rate constant of binding", "setting": "[9]", "value": 0.0112, "unit": "s⁻¹"},
      {"measurement": "k3 forward rate constant for second cofactor binding", "setting": "[9]", "value": 710, "unit": "M⁻¹ s⁻¹"},
      {"measurement": "k-2 dissociation rate constant", "setting": "[9]", "value": 0.0038, "unit": "s⁻¹"},
      {"measurement": "k-3 reverse rate constant for dissociation of second cofactor", "setting": "[9]", "value": 0.0076, "unit": "s⁻¹"},
      {"measurement": "pKa for the ([AP] + [IP])/[APH^+] equilibrium", "setting": "[10]", "value": "7.07 ± 0.1"},
      {"measurement": "rate constant of reductive acetylation of LDh-ec", "setting": "[11]", "value": 52, "unit": "s⁻¹"},
      {"measurement": "Kd", "setting": "[12]", "value": "7 ± 0.9", "unit": "µM"},
      {"measurement": "Kd", "setting": "[13]", "value": "3.5 ± 0.1", "unit": "µM"}
    ]}
  ]
}
